From a compilation of properties of binary mixtures (doi:10.1021/acs.jpcb.0c03296)

Test: xn = mol fraction of the nth substance listed
Details: 100 kPa

C[N+](C)(C)CCO.O=S(=O)([N-]S(=O)(=O)C(F)(F)F)C(F)(F)F + OCCO
Details	electrical conductivity, x1 = 0.14 [S/m]	electrical conductivity, x1 = 0.2 [S/m]	electrical conductivity, x1 = 0.333 [S/m]	viscosity, x1 = 0.14 [mPa·s]	viscosity, x1 = 0.2 [mPa·s]	viscosity, x1 = 0.333 [mPa·s]
298.1 K	0.313	0.402	0.36	22.27	28.99	30.56
303 K	–	0.494	0.442	–	23.44	24.82
308.1 K	0.456	0.6	0.532	14.46	18.97	20.46
313 K	0.54	0.715	0.635	12.12	15.74	17.15
318.1 K	0.631	0.839	0.745	10.36	13.28	14.48
323 K	–	0.975	0.866	–	11.32	12.28
328.1 K	0.838	1.12	1	7.73	9.77	10.7
